Measurements as given in patent US20100144725A1, “PESTICIDAL COMBINATIONS” (SYNGENTA CROP PROTECTION, INC., priority 2007, published 2010).

Key:
Pyrenophora graminea = assay: Fungal growth assay, Pyrenophora graminea (leaf stripe of barley), microtiter plate, photometric; assay type: cell-based; settings: 72 hrs
Experimental: The action to be expected E for a given active ingredient combination obeys the so-called COLBY formula and can be calculated as follows (COLBY, S. R. “Calculating synergistic and antagonistic responses of herbicide combination”. Weeds, Vol. 15, pages 20-22; 1967): If the action actually observed (O) is greater than the expected action (E), then the action of the combination is super-additive, i.e. there is a synergistic effect. Inhibiting of fungal growth of the following fungi are carried out by fungal growth assays (detailed below). Pyrenophora […] stripe of barley): Conidia of the fungus from cryogenic storage are directly mixed into nutrient broth (PDB potato dextrose broth). After placing a (DMSO) solution of the test compounds into a microtiter plate (96-well format) the nutrient broth containing the fungal spores is added. The test plates are incubated at 24 C and the inhibition of growth is measured photometrically after 72 hrs. The fungicide interactions in the combinations are calculated according to COLBY method, where A is thiabendazole and B is a mixture of tebuconazole and azoxystrobin in a mass ratio of 2:1. The results for A & B solo are shown in Table below and those for the combinations in a range of ratios in Table 1.

Rhizoctonia solani = assay: Fungal growth assay, Rhizoctonia solani (foot rot, damping-off), microtiter plate, photometric; assay type: cell-based; settings: 72 hrs
Experimental: The action to be expected E for a given active ingredient combination obeys the so-called COLBY formula and can be calculated as follows (COLBY, S. R. “Calculating synergistic and antagonistic responses of herbicide combination”. Weeds, Vol. 15, pages 20-22; 1967): If the action actually observed (O) is greater than the expected action (E), then the action of the combination is super-additive, i.e. there is a synergistic effect. Inhibiting of fungal growth of the following fungi are carried out by fungal growth assays (detailed below). Rhizoctonia solani (foot rot, damping-off): Mycelial fragments of a newly grown culture of the fungus are directly mixed into nutrient broth (PDB potato dextrose broth). After placing a (DMSO) solution of the test compounds into a microtiter plate (96-well format) the nutrient broth containing the fungal spores is added. The test plates were incubated at 24 C and the inhibition of growth is measured photometrically after 72 hrs. The fungicide interactions in the combinations are calculated according to COLBY method, where C is ipconazole and D is a mixture of tebuconazole and azoxystrobin in a mass ratio of 2:1. The results for C & D solo are shown in Table below and those for the combinations in a range of ratios in Table 2.

With `c1ccc2[nH]c(-c3cscn3)nc2c1` [A, thiabendazole] as the molecule, how does the “Observed control in %” value (Pyrenophora graminea; A solo 0.004 ppm) read?
Its value is 0%.

What about the “Observed control in %” value (Pyrenophora graminea; A solo 0.008 ppm) of the same molecule?
The value was 0%.

What about the “Observed control in %” value (Pyrenophora graminea; A solo 0.016 ppm) of the same molecule?
Its value is 0%.

And the “Observed control in %” value (Pyrenophora graminea; A solo 0.031 ppm)?
Its value is 0%.

What about the “Observed control in %” value (Pyrenophora graminea; A solo 0.063 ppm) of the same molecule?
Its value is 0%.

What about the “Observed control in %” value (Pyrenophora graminea; A solo 0.125 ppm) of the same molecule?
Its value is 1%.

And the “Observed control in %” value (Pyrenophora graminea; A solo 0.25 ppm)?
Its value is 10%.

And the “Observed control in %” value (Pyrenophora graminea; A solo 0.5 ppm)?
Its value is 25%.

What about the “Observed control in %” value (Pyrenophora graminea; A solo 1.0 ppm) of the same molecule?
Its value is 29%.

What about the “Observed control in %” value (Pyrenophora graminea; A solo 2.0 ppm) of the same molecule?
Its value is 22%.

`CC(C)C1CCC(Cc2ccc(Cl)cc2)C1(O)Cn1cncn1` (centres unmarked) [C, ipconazole] was tested. Which “Observed control in %” value (Rhizoctonia solani; C solo 0.004 ppm) did it give?
Its value is 9%.

What about the “Observed control in %” value (Rhizoctonia solani; C solo 0.008 ppm) of the same molecule?
The value was 3%.

What about the “Observed control in %” value (Rhizoctonia solani; C solo 0.016 ppm) of the same molecule?
The value was 0%.

And the “Observed control in %” value (Rhizoctonia solani; C solo 0.031 ppm)?
Its value is 7%.

And the “Observed control in %” value (Rhizoctonia solani; C solo 0.063 ppm)?
The value was 0%.

And the “Observed control in %” value (Rhizoctonia solani; C solo 0.125 ppm)?
Its value is 0%.

What about the “Observed control in %” value (Rhizoctonia solani; C solo 0.25 ppm) of the same molecule?
The value was 2%.

And the “Observed control in %” value (Rhizoctonia solani; C solo 0.5 ppm)?
The value was 5%.

What about the “Observed control in %” value (Rhizoctonia solani; C solo 1.0 ppm) of the same molecule?
The value was 0%.

And the “Observed control in %” value (Rhizoctonia solani; C solo 2.0 ppm)?
Its value is 9%.
